Patent US6573218B1, “Fused-benzene derivatives useful as herbicides” (Ishihara Sangyo Kaisha, Ltd., priority 1998, dated 2003)

Experiments:
Assay type in all cases: in vivo
[1] = system: soybean (Glycine max L., var. Pella 86, SOY); assay: Pre-emerge greenhouse crop damage test
Description: (§1) A standard greenhouse herbicide activity screening system was used to evaluate the herbicidal efficacy and crop safety of these test compounds. Seven broadleaf weed species including redroot pigweed (Amaranthus retroflexus, AMARE), velvetleaf (Abutilon theophrasti, ABUTH), sicklepod (Cassia obtusifolia, CASOB), ivyleaf morningglory (Ipomoea hederacea, IPOHE), lambsquarters (Chenopodium album, CHEAL), common ragweed (Ambrosia artemisiifolia L., AMBEL), and cocklebur (Xanthium strumarium, XANST) were used as test species. Four grass weed species including green foxtail (Setaria viridis, SETVI), barnyardgrass (Echinochloa crus-galli, ECHCG), johnsongrass (Sorghum halepense, SORHA), and large crabgrass (Digitaria sanguinalis, DIGSA) were also used. In addition, three crop species, field corn (Zea mays L., var. Dekalb 527, CORN), soybean (Glycine max L., var. Pella 86, SOY), and upland rice (Ory0a sp., var.Tebonnet, RICE) were included.
(§2) All plants were grown in 10 cm square plastic pots which were filled with a sandy loam soil mix. For pre-emerge tests, seeds were planted one day prior to application of the test compounds. For post-emerge tests, seeds were planted 8-21 days prior to the test to allow emergence and good foliage development prior to application of the test substances. At the time of the post-emerge application, plants of all species were usually at the 2-3 leaf stage of development.
(§3) All test compounds were dissolved in acetone and applied to the test units in a volume of 187 l/ha. Test materials were applied at rates ranging from 15 g ai/ha to 1000 g ai/ha using a track sprayer equipped with a TJ8001E even flow flat fan spray nozzle. Plants were arranged on a shelf so that the top of the canopy (post-emerge) or top of the soil surface (pre-emerge) was 40-45 cm below the nozzle. Pressurized air was used to force the test solution through the nozzle as it was mechanically advanced over the top of all test plants/pots. This application simulates a typical commercial field herbicide application.
(§4) In the post-emerge test, a commercial non-ionic surfactant was also included (0.25% v/v) to enhance wetting of the leaf surfaces of target plants. Immediately after application, test units of the pre-emerge applications were watered at the soil surface to incorporate the test materials.
(§5) At 14 days after application of the test materials, phytotoxicity ratings were recorded. A rating scale of 0-100 was used as previously described in Research Methods in Weed Science, 2nd edition, B. Truelove, Ed., Southern Weed Science Society, Auburn University, Auburn, Ala., 1977. Briefly, “0” corresponds to no damage and “100” corresponds to complete death of all plants in the test unit. This scale was used both to determine efficacy against weed species and damage to crop species. Herbicide activity data for various compounds of this invention, which are shown by compound No. in Tables 1-14, are shown in Tables 16 and 17.

[2] = system: field corn (Zea mays L., var. Dekalb 527, CORN); assay: Pre-emerge greenhouse crop damage test
Description: as §1, §2, §3, §4, §5

[3] = system: upland rice (Ory0a sp., var.Tebonnet, RICE); assay: Pre-emerge greenhouse crop damage test; conditions: in vivo
Description: as §1, §2, §3, §4, §5

[4] = system: green foxtail (Setaria viridis, SETVI); assay: Pre-emerge greenhouse herbicide test; conditions: 14 days after application, scale 0-100 (0 no damage, 100 complete death)
Description: as §1, §2, §3, §4, §5

[5] = system: ivyleaf morningglory (Ipomoea hederacea, IPOHE); assay: Pre-emerge greenhouse herbicide test; conditions: 14 days after application, scale 0-100 (0 no damage, 100 complete death)
Description: as §1, §2, §3, §4, §5

[6] = system: velvetleaf (Abutilon theophrasti, ABUTH); assay: Pre-emerge greenhouse herbicide test; conditions: 14 days after application, scale 0-100 (0 no damage, 100 complete death)
Description: as §1, §2, §3, §4, §5

[7] = system: lambsquarters (Chenopodium album, CHEAL); assay: Pre-emerge greenhouse herbicide test; conditions: 14 days after application, scale 0-100 (0 no damage, 100 complete death)
Description: as §1, §2, §3, §4, §5

[8] = system: johnsongrass (Sorghum halepense, SORHA); assay: Pre-emerge greenhouse herbicide test; conditions: 14 days after application, scale 0-100 (0 no damage, 100 complete death)
Description: as §1, §2, §3, §4, §5

[9] = system: large crabgrass (Digitaria sanguinalis, DIGSA); assay: Pre-emerge greenhouse herbicide test; conditions: 14 days after application, scale 0-100 (0 no damage, 100 complete death)
Description: as §1, §2, §3, §4, §5

[10] = system: sicklepod (Cassia obtusifolia, CASOB); assay: Pre-emerge greenhouse herbicide test; conditions: 14 days after application, scale 0-100 (0 no damage, 100 complete death)
Description: as §1, §2, §3, §4, §5

[11] = system: redroot pigweed (Amaranthus retroflexus, AMARE); assay: Pre-emerge greenhouse herbicide test; conditions: 14 days after application, scale 0-100 (0 no damage, 100 complete death)
Description: as §1, §2, §3, §4, §5

[12] = system: barnyardgrass (Echinochloa crus-galli, ECHCG); assay: Pre-emerge greenhouse herbicide test; conditions: 14 days after application, scale 0-100 (0 no damage, 100 complete death)
Description: as §1, §2, §3, §4, §5

[13] = system: soybean (Glycine max L., var. Pella 86, SOY); assay: Post-emerge greenhouse crop damage test
Description: as §1, §2, §3, §4, §5

[14] = system: field corn (Zea mays L., var. Dekalb 527, CORN); assay: Post-emerge greenhouse crop damage test
Description: as §1, §2, §3, §4, §5

[15] = system: upland rice (Ory0a sp., var.Tebonnet, RICE); assay: Post-emerge greenhouse crop damage test
Description: as §1, §2, §3, §4, §5

[16] = system: green foxtail (Setaria viridis, SETVI); assay: Post-emerge greenhouse herbicide test; conditions: 14 days after application
Description: as §1, §2, §3, §4, §5

[17] = system: ivyleaf morningglory (Ipomoea hederacea, IPOHE); assay: Post-emerge greenhouse herbicide test; conditions: 14 days after application
Description: as §1, §2, §3, §4, §5

[18] = system: velvetleaf (Abutilon theophrasti, ABUTH); assay: Post-emerge greenhouse herbicide test; conditions: 14 days after application
Description: as §1, §2, §3, §4, §5

[19] = system: lambsquarters (Chenopodium album, CHEAL); assay: Post-emerge greenhouse herbicide test; conditions: 14 days after application
Description: as §1, §2, §3, §4, §5

[20] = system: johnsongrass (Sorghum halepense, SORHA); assay: Post-emerge greenhouse herbicide test; conditions: 14 days after application
Description: as §1, §2, §3, §4, §5

[21] = system: large crabgrass (Digitaria sanguinalis, DIGSA); assay: Post-emerge greenhouse herbicide test; conditions: 14 days after application
Description: as §1, §2, §3, §4, §5

[22] = system: sicklepod (Cassia obtusifolia, CASOB); assay: Post-emerge greenhouse herbicide test; conditions: 14 days after application
Description: as §1, §2, §3, §4, §5

[23] = system: redroot pigweed (Amaranthus retroflexus, AMARE); assay: Post-emerge greenhouse herbicide test; conditions: 14 days after application
Description: as §1, §2, §3, §4, §5

[24] = system: barnyardgrass (Echinochloa crus-galli, ECHCG); assay: Post-emerge greenhouse herbicide test; conditions: 14 days after application
Description: as §1, §2, §3, §4, §5

[25] = var. Pella 86, soybean (Glycine max L.), in vivo, 14 days
[26] = var. Dekalb 527, field corn (Zea mays L.), in vivo, 14 days
[27] = var. Tebonnet, upland rice (Ory0a sp.), 14 days
[28] = var. Tebonnet, upland rice (Ory0a sp.), in vivo, 14 days
[29] = pre-emerge, 250 g ai/ha, 14 days after application, scale 0-100 (0 no damage, 100 complete death)
[30] = 250 g ai/ha, post-emerge, 14 days after application

Structure (SMILES)	Pre-emerge Herbicidal Activity SOY (crop damage rating) [1, 25]	Pre-emerge Herbicidal Activity CORN (crop damage rating) [2, 26]	Pre-emerge Herbicidal Activity RICE (crop damage rating) [3, 27]	Pre-emerge Herbicidal Activity SETVI (phytotoxicity rating) ([4]; 250 g ai/ha)	Pre-emerge Herbicidal Activity IPOHE (phytotoxicity rating) ([5]; 250 g ai/ha)	Pre-emerge Herbicidal Activity ABUTH (phytotoxicity rating) ([6]; 250 g ai/ha)	Pre-emerge Herbicidal Activity CHEAL (phytotoxicity rating) ([7]; 250 g ai/ha)	Pre-emerge Herbicidal Activity SORHA (phytotoxicity rating) ([8]; 250 g ai/ha)	Pre-emerge Herbicidal Activity DIGSA (phytotoxicity rating) ([9]; 250 g ai/ha)	Pre-emerge Herbicidal Activity CASOB (phytotoxicity rating) ([10]; 250 g ai/ha)	Pre-emerge Herbicidal Activity AMARE (phytotoxicity rating) ([11]; 250 g ai/ha)	Pre-emerge Herbicidal Activity ECHCG (phytotoxicity rating) ([12]; 250 g ai/ha)	Post-emerge crop damage SOY (phytotoxicity rating 0-100) [13, 25]	Post-emerge crop damage CORN (phytotoxicity rating 0-100) [14, 26]	Post-emerge crop damage RICE (phytotoxicity rating 0-100) [15, 28]	Post-emerge Herbicidal Activity SETVI (phytotoxicity rating 0-100) ([16]; 250 g ai/ha)	Post-emerge Herbicidal Activity IPOHE (phytotoxicity rating 0-100) ([17]; 250 g ai/ha)	Post-emerge Herbicidal Activity ABUTH (phytotoxicity rating 0-100) ([18]; 250 g ai/ha)	Post-emerge Herbicidal Activity CHEAL (phytotoxicity rating 0-100) ([19]; 250 g ai/ha)	Post-emerge Herbicidal Activity SORHA (phytotoxicity rating 0-100) ([20]; 250 g ai/ha)	also measured
Cn1c(C(F)(F)F)cc(=O)n(-c2c(F)cc(Cl)c3c2N=C(c2ccccc2)CO3)c1=O [Compound 1-3, 3-(8-Chloro-6-fluoro-3-phenyl-2H-1,4-benzoxazin-5-yl)-1-methyl-6-trifluoromethyl-2,4(1H,3H)-pyrimidindione]	0	0	10	80	0	80	100	0	0	80	100	0	30	10	20	0	30	90	20	0	Post-emerge Herbicidal Activity DIGSA (phytotoxicity rating 0-100) ([21]; 250 g ai/ha): 0; Post-emerge Herbicidal Activity CASOB (phytotoxicity rating 0-100) ([22]; 250 g ai/ha): 0; Post-emerge Herbicidal Activity AMARE (phytotoxicity rating 0-100) ([23]; 250 g ai/ha): 60; Post-emerge Herbicidal Activity ECHCG (phytotoxicity rating 0-100) ([24]; 250 g ai/ha): 0
CCc1nc2c(-n3c(=O)n4n(c3=S)CCC=C4)c(F)cc(Cl)c2o1 [Compound 8-1, 8-(7-Chloro-2-ethyl-5-fluorobenzoxazol-4-yl)-1,6,8-triazabicyclo[4,3,0]2-nonene-9-one-7-thione]	60	50	20	100	60	100	100	100	100	90	100	90	100	80	80	100	100	100	99	99	Post-emerge Herbicidal Activity DIGSA (phytotoxicity rating 0-100) ([21]; 250 g ai/ha): 70; Post-emerge Herbicidal Activity CASOB (phytotoxicity rating 0-100) ([22]; 250 g ai/ha): 100; Post-emerge Herbicidal Activity AMARE (phytotoxicity rating 0-100) ([23]; 250 g ai/ha): 100; Post-emerge Herbicidal Activity ECHCG (phytotoxicity rating 0-100) ([24]; 250 g ai/ha): 90
CCOC(=O)c1nc2c(-n3c(=O)cc(C(F)(F)F)n(C)c3=O)c(F)cc(Cl)c2oc1=O [Compound 3-5]				0	0	65	70	0	0	0	50	0				10	0	60	0	0	Pre-emerge Herbicidal Activity SOY (crop damage rating) [1, 29]: 0; Pre-emerge Herbicidal Activity CORN (crop damage rating) [2, 29]: 0; Pre-emerge Herbicidal Activity RICE (crop damage rating) [3]: 0; Post-emerge crop damage SOY (phytotoxicity rating 0-100) [13, 30]: 0; Post-emerge crop damage CORN (phytotoxicity rating 0-100) [14, 30]: 0; Post-emerge crop damage RICE (phytotoxicity rating 0-100) [15, 30]: 0; Post-emerge Herbicidal Activity DIGSA (phytotoxicity rating 0-100) ([21]; 250 g ai/ha): 0; Post-emerge Herbicidal Activity CASOB (phytotoxicity rating 0-100) ([22]; 250 g ai/ha): 0; Post-emerge Herbicidal Activity AMARE (phytotoxicity rating 0-100) ([23]; 250 g ai/ha): 20; Post-emerge Herbicidal Activity ECHCG (phytotoxicity rating 0-100) ([24]; 250 g ai/ha): 0
Cn1c(C(F)(F)F)cc(=O)n(-c2c(F)cc(Cl)c3c2NCCO3)c1=O [Compound 2-1, 3-(8-Chloro-6-fluoro-3,4-dihydro-2H-1,4-benzoxazin-5-yl)-1-methyl-6-trifluoromethyl-2,4(1H,3H)-pyrimidindione]	50	20	70										90	20	40						Pre-emerge Herbicidal Activity SETVI (phytotoxicity rating) ([4]; 125 g ai/ha): 100; Pre-emerge Herbicidal Activity IPOHE (phytotoxicity rating) ([5]; 125 g ai/ha): 50; Pre-emerge Herbicidal Activity ABUTH (phytotoxicity rating) ([6]; 125 g ai/ha): 100; Pre-emerge Herbicidal Activity CHEAL (phytotoxicity rating) ([7]; 125 g ai/ha): 100; Pre-emerge Herbicidal Activity SORHA (phytotoxicity rating) ([8]; 125 g ai/ha): 95; Pre-emerge Herbicidal Activity DIGSA (phytotoxicity rating) ([9]; 125 g ai/ha): 100; Pre-emerge Herbicidal Activity CASOB (phytotoxicity rating) ([10]; 125 g ai/ha): 40; Pre-emerge Herbicidal Activity AMARE (phytotoxicity rating) ([11]; 125 g ai/ha): 100; Pre-emerge Herbicidal Activity ECHCG (phytotoxicity rating) ([12]; 125 g ai/ha): 50; Post-emerge Herbicidal Activity SETVI (phytotoxicity rating 0-100) ([16]; 125 g ai/ha): 50; Post-emerge Herbicidal Activity IPOHE (phytotoxicity rating 0-100) ([17]; 125 g ai/ha): 100; Post-emerge Herbicidal Activity ABUTH (phytotoxicity rating 0-100) ([18]; 125 g ai/ha): 100; Post-emerge Herbicidal Activity CHEAL (phytotoxicity rating 0-100) ([19]; 125 g ai/ha): 100; Post-emerge Herbicidal Activity SORHA (phytotoxicity rating 0-100) ([20]; 125 g ai/ha): 0; Post-emerge Herbicidal Activity DIGSA (phytotoxicity rating 0-100) ([21]; 125 g ai/ha): 0; Post-emerge Herbicidal Activity CASOB (phytotoxicity rating 0-100) ([22]; 125 g ai/ha): 80; Post-emerge Herbicidal Activity AMARE (phytotoxicity rating 0-100) ([23]; 125 g ai/ha): 90; Post-emerge Herbicidal Activity ECHCG (phytotoxicity rating 0-100) ([24]; 125 g ai/ha): 10
